According to patent US20220324809A1, “ATP-REGULATED POTASSIUM CHANNEL OPENERS AND USES THEREOF” (SALZMAN GROUP LTD., priority 2019, published 2022):

Assays:
Assay type in all cases: in vivo, Sprague-Dawley rats
MCT-induced PH [1] = assay: Single IV administration of R-1703 in rat treatment model of MCT-induced PH (acute and sustained effect)
Source text: An established rat model for PH utilizes monocrotaline (MCT), a toxin derived from plants of the Crotalaria species, which causes pulmonary arterial endothelial cell injury and subsequent pulmonary artery smooth muscle hypertrophy. This model serves as a tool for assessing an immediate vasorelaxation effect by monitoring real-time right ventricular pressure in rats with PAH (late intervention regimen), as well as assessment of efficacy in a prevention of vascular remodeling progression (early intervention regimen). In the latter mode, weight ratios of left and right ventricles and histopathological assessment of right ventricular hypertrophy are used to evaluate the extent of fibrosis. R-1703 is effective in acutely treating a rodent model of MCT-induced PH. Sprague-Dawley rats (n=3 per group) were treated with a single subcutaneous (SC) injection of MCT with 60 mg/kg or an equivalent volume of saline (2 mL/kg). After a post-MCT period of 28 days wherein rats developed severe and stable PH, rats were anesthetized and endotracheally intubated, followed by a single intravenous (IV) administration of R-1703 (15, 30, 60, and 90 μg/kg, in PBS) via the tail vein. Vehicle controls received an equivalent volume of PBS. MCT induced a large increase in MPAP (from 25 to 50 mmHg). […] The experiments shown below have been repeated three times and are reproducible.

MCT-induced PH [2] = assay: Intratracheal aerosolized R-1703 in rat treatment model of MCT-induced PH: acute effect
Description: (§1) Intratracheal (IT) aerosolized R-1703 is effective in a rodent treatment model of MCT-induced PH: Acute effect. 28 days after injection of MCT (60 mg/kg SC) and development of severe and stable PH, mechanically ventilated and anaesthetized Sprague-Dawley rats were dosed IT with aerosolized solution (2.0 mL) containing 500 or 5000 ng/mL of R-1703 in PBS. Vehicle controls received an equivalent volume of PBS. MCT induced a large increase in MPAP.

MCT-induced PH [3] = assay: Intratracheal aerosolized R-1703 in rat treatment model of MCT-induced PH: sustained effect
Description: as §1, with “Intratracheal” for “Intratracheal (IT)”, “Sustained” for “Acute”, “delivering 0.6, 6.0,” for “containing 500”, “30 micrograms per kg” for “5000 ng/mL”

MCT-induced PH [4] = assay: Prophylactic daily IP R-1703 in rat model of MCT-induced PH; details: 50 micrograms per kg IP daily, measured 28 days post-MCT, p<0.001, FIG. 4
Description: Sprague-Dawley rats (n=3 per group) were treated with a single SC injection of MCT with 60 mg/kg or an equivalent volume of saline (2 mL/kg). Rats were then treated daily with 50 micrograms per kg of R-1703 by an intraperitoneal (IP) route of administration. After a post-MCT period of 28 days wherein vehicle control treated rats develop severe and stable PH, rats were anesthetized and endotracheally intubated.

[5] = IT aerosol 0.6, 6.0 or 30 micrograms per kg

CCC(C)(C)N/C(=N\C#N)Nc1cncc(C(=O)NCCO)c1 [R-1703]
effect on heart rate (MCT-induced PH [1]; IV 15-90 μg/kg): no effect
effect on peripheral blood pressure (MCT-induced PH [1]; IV 15-90 μg/kg): no effect
persistence of effect on MPAP post dose (MCT-induced PH [1]; IV, FIG. 1B): at least 24 h
persistence of effect on MPAP after administration (MCT-induced PH [1]; IV, FIG. 1B legend): at least 24 hours
effect on MCT-induced elevation in MPAP (MCT-induced PH [1]; single IV 15, 30, 60, 90 μg/kg in PBS, 28 days post-MCT): dose-dependently reduced the MCT-induced elevation in MPAP
restoration of normal pressures (MPAP) (MCT-induced PH [1]; single IV dose 90 μg/kg, 28 days post-MCT, p<0.000005, FIG. 1A): 100%
effect on heart rate (MCT-induced PH [2]; IT aerosol 500 or 5000 ng/mL): no effect
effect on peripheral blood pressure (MCT-induced PH [2]; IT aerosol 500 or 5000 ng/mL): no effect
effect on MCT-induced elevation in MPAP (MCT-induced PH [2]; IT aerosolized solution 2.0 mL, 500 or 5000 ng/mL, acute effect, p<0.001, FIG. 2): dose-dependently reduced the MCT-induced elevation in MPAP
effect on heart rate (MCT-induced PH [3]; [5]): no effect
effect on peripheral blood pressure (MCT-induced PH [3]; [5]): no effect
effect on MCT-induced elevation in MPAP (MCT-induced PH [3]; IT aerosol delivering 0.6, 6.0 or 30 micrograms per kg, sustained effect, p<0.001, FIG. 3): dose-dependently reduced the MCT-induced elevation in MPAP
restoration of normal pressures (MPAP) (MCT-induced PH [4]): 80%
